Source: ChEMBL document CHEMBL6109055, “Naphtho[1,2-b][1,4]diazepinedione-Based P2X4 Receptor Antagonists from Structure-Activity Relationship Studies toward PET Tracer Development” (J Med Chem, 2025)

Legend:
P2X purinoceptor 4 = P2X purinoceptor 4 (Homo sapiens, UniProt Q99571); assay: Antagonist activity at human P2X4 receptor overexpressed in human 1321N1 cells assessed as inhibition of ATP-induced calcium responses by Fluo-4 AM/Ca2+ Flux assay; type: cell-based
[1] = Stability in human serum measured up to 90 mins at 3.1 to 8.7 MBq by analytical radio-HPLC analysis; type: ADME, cell-free; details: dose 3.1-8.7 MBq, read-out: Stability
[2] = Octanol/PBS partition coefficient, log D of the radiolabeled compound at 420 to 460 kBq at pH 7.4 by gamma-counting analysis; type: physicochemical; details: dose 420-460 kBq
[3] = Stability in mouse serum measured up to 90 mins at 3.1 to 8.7 MBq by analytical radio-HPLC analysis; type: ADME, cell-free; details: dose 3.1-8.7 MBq, read-out: Stability
[4] = In vivo biodistribution in adult female C57Bl/6 mouse assessed as accumulation in liver at about 5 MBq, iv measured after 15 mins by PET imaging analysis; type: ADME, organism-based; details: 0.25 h
[5] = In vivo biodistribution in adult female C57Bl/6 mouse assessed as accumulation in gall bladder at about 5 MBq, iv measured after 30 mins by PET imaging analysis; type: ADME, organism-based; details: 0.5 h
[6] = In vivo biodistribution in adult female C57Bl/6 mouse assessed as accumulation in bladder at 5 MBq, iv measured after 2 to 85 mins by PET imaging analysis; type: ADME, organism-based, Urinary bladder; details: time 2-85 min
[7] = Metabolic stability in C57BL/6 mouse liver microsomes assessed as remaining parent compound by UPLC-UV/MS analysis; type: ADME, Microsome
[8] = Lipophilicity, logD of compound in n-octanol and buffer at pH 7.4 by LC-MS analysis; type: physicochemical
[9] = Plasma protein binding in unknown origin; type: ADME, cell-free; details: read-out: PPB (converted)
THP-1 = assay: Inhibition of NLRP3 inflammasome activation in LPS-activated human THP-1 cells assessed as inhibition of LPS/ATP induced IL-1beta secretion at 100 nM preincubated with PMA for 24 hrs followed further stimulated with LPS for 3 hrs and further incubated with compound and ATP for 30 mins by ELISA method; type: cell-based
[10] = In vivo biodistribution in adult female C57Bl/6 mouse assessed as accumulation in intestine at about 5 MBq, iv measured after 2 to 85 mins by PET imaging analysis; type: ADME, organism-based; details: time 2-85 min
[11] = In vivo biodistribution in adult female C57Bl/6 mouse assessed as accumulation in bladder at 5 MBq, iv measured after 15 to 85 mins by PET imaging analysis; type: ADME, organism-based, Urinary bladder; details: time 15-85 min

Chain of P2X purinoceptor 4 (Q99571 whole entry): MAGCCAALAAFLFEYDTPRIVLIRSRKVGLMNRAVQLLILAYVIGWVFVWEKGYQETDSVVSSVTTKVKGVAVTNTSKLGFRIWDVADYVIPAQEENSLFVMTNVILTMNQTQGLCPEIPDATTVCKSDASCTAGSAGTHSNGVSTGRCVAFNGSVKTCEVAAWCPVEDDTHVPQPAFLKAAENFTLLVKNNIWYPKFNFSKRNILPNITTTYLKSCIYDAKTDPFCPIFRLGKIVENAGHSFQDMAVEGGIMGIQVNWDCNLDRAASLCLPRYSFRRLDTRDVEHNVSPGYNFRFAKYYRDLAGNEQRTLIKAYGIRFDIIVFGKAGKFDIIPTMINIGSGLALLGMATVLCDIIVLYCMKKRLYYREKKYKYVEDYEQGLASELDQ

Structure (SMILES)	IC50 (P2X purinoceptor 4; read-out: IC50) [µM]	also measured
COc1ccc(S(=O)(=O)Nc2ccc(N3C(=O)CC(=O)Nc4c3ccc3ccccc43)cc2)c(Cl)c1	5.97	–
Cc1cc(B(O)O)ccc1S(=O)(=O)Nc1ccc(N2C(=O)CC(=O)Nc3c2ccc2ccccc32)cc1	0.048	–
Cc1cc([18F])ccc1S(=O)(=O)Nc1ccc(N2C(=O)CC(=O)Nc3c2ccc2ccccc32)cc1	–	remaining at […] [1]: > 99%; logD [2]: 3.5; remaining at […] [3]: > 99%; Drug uptake [4]: Active; Drug uptake [5]: Active; Drug uptake [6]: Not_active
Cc1cc(F)ccc1CS(=O)(=O)Nc1ccc(N2C(=O)CC(=O)Nc3c2ccc2ccccc32)nc1	0.025	Stability [7]: 57%; logD [8]: 2.36; fraction unbound [9]: 0.05
O=C1CC(=O)N(c2ccc(NS(=O)(=O)Cc3ccccc3Cl)cc2)c2ccc3ccccc3c2N1	–	Stability [7]: 71%; logD [8]: 3.39; fraction unbound [9]: < 0.02
O=C1CC(=O)N(c2ccc(NS(=O)(=O)c3ccccc3Cl)cc2)c2ccc3ccccc3c2N1	0.445	–
O=C1CC(=O)N(c2ccc(NS(=O)(=O)c3ccc(B(O)O)cc3Cl)cc2)c2ccc3ccccc3c2N1	0.891	–
O=C1CC(=O)N(c2ccc(NS(=O)(=O)c3ccc(Br)cc3Cl)cc2)c2ccc3ccccc3c2N1	1.59	–
O=C1CC(=O)N(c2ccc(NS(=O)(=O)C3CCCCC3)cc2)c2ccc3ccccc3c2N1	2.58	–
Nc1ccc(N2C(=O)CC(=O)Nc3c2ccc2ccccc32)nc1	6.46	–
O=C1CC(=O)N(c2ccc(NC(=O)c3cccnc3[N+](=O)[O-])cc2)c2ccc3ccccc3c2N1	2.28	–
O=C1CC(=O)N(c2ccc(NS(=O)(=O)Cc3ccc(F)cc3Br)cc2)c2ccc3ccccc3c2N1	0.076	–
O=C1CC(=O)N(c2ccc(NS(=O)(=O)c3cccnc3Cl)cc2)c2ccc3ccccc3c2N1	0.318	–
CN(c1ccc(N2C(=O)CC(=O)Nc3c2ccc2ccccc32)cc1)S(=O)(=O)c1ccccc1	0.683	–
O=C1CC(=O)N(c2ccc(NS(=O)(=O)c3ccccc3I)cc2)c2ccc3ccccc3c2N1	0.264	–
O=C1CC(=O)N(c2ccc(NC(=O)c3cccnc3F)cc2)c2ccc3ccccc3c2N1	2.41	–
Cc1ccc(F)cc1S(=O)(=O)Nc1ccc(N2C(=O)CC(=O)Nc3c2ccc2ccccc32)cc1	0.179	–
Cc1cccc(Cl)c1S(=O)(=O)Nc1ccc(N2C(=O)CC(=O)Nc3c2ccc2ccccc32)cc1	0.385	–
O=C(Cc1cc(F)ccc1Cl)Nc1ccc(N2C(=O)CC(=O)Nc3c2ccc2ccccc32)cc1	0.442	–
O=C1CC(=O)N(c2ccc(NC(=O)c3cccnc3Cl)cc2)c2ccc3ccccc3c2N1	0.78	–
COc1ccc(Br)cc1S(=O)(=O)Nc1ccc(N2C(=O)CC(=O)Nc3c2ccc2ccccc32)cc1	2.33	–
O=C1CC(=O)N(c2ccc(NS(=O)(=O)c3ccc(C(F)(F)F)cc3Cl)cc2)c2ccc3ccccc3c2N1	3.39	–
O=C1CC(=O)N(c2ccc(NC(=O)c3ccccc3)cc2)c2ccc3ccccc3c2N1	0.585	–

Structure (SMILES)	IC50 (P2X purinoceptor 4; read-out: IC50) [µM]	also measured
Cc1cc(B(O)O)ccc1CS(=O)(=O)Nc1ccc(N2C(=O)CC(=O)Nc3c2ccc2ccccc32)cc1	0.372	–
O=C1CC(=O)N(c2ccc(NS(=O)(=O)c3cccnc3F)cc2)c2ccc3ccccc3c2N1	1.12	Stability [7]: 95%; logD [8]: 1.78; IC50 (P2X purinoceptor 4; read-out: pIC50 (converted)): 1.1 µM; fraction unbound [9]: 0.06
O=C1CC(=O)N(c2ccc(NS(=O)(=O)Cc3c(F)cccc3Cl)cc2)c2ccc3ccccc3c2N1	0.108	–
Cc1ccccc1S(=O)(=O)Nc1ccc(N2C(=O)CC(=O)Nc3c2ccc2ccccc32)cc1	0.115	–
Cc1cc(Br)ccc1S(=O)(=O)Nc1ccc(N2C(=O)CC(=O)Nc3c2ccc2ccccc32)cc1	0.263	–
N#Cc1ccc(S(=O)(=O)Nc2ccc(N3C(=O)CC(=O)Nc4c3ccc3ccccc43)cc2)c(Cl)c1	14.1	–
O=C1CC(=O)N(c2ccc(NS(=O)(=O)Cc3cc(F)ccc3Cl)cc2)c2ccc3ccccc3c2N1	0.081	–
Cc1cc(F)ccc1S(=O)(=O)Nc1ccc(N2C(=O)CC(=O)Nc3c2ccc2ccccc32)cc1	–	Stability [7]: 93%; fraction unbound [9]: < 0.02; inhibition (THP-1): Active; Compund More Potent Than Bay1797
O=C1CC(=O)N(c2ccc(NS(=O)(=O)c3cc(F)ccc3Cl)cc2)c2ccc3ccccc3c2N1	0.135	Stability [7]: 98%; logD [8]: 3.25; fraction unbound [9]: < 0.02
Cc1cc(F)ccc1CS(=O)(=O)Nc1ccc(N2C(=O)CC(=O)Nc3c2ccc2ccccc32)cc1	–	Stability [7]: 64%; IC50 (P2X purinoceptor 4; read-out: pIC50 (converted)): 0.00759 µM; fraction unbound [9]: < 0.02; inhibition (THP-1): Active; Compund More Potent Than Bay1797
COc1ccc(F)cc1S(=O)(=O)Nc1ccc(N2C(=O)CC(=O)Nc3c2ccc2ccccc32)cc1	0.473	–
COc1ccccc1S(=O)(=O)Nc1ccc(N2C(=O)CC(=O)Nc3c2ccc2ccccc32)cc1	0.09	–
O=C1CC(=O)N(c2ccc(NC(=O)c3ccccc3F)cc2)c2ccc3ccccc3c2N1	2.3	–
O=C1CC(=O)N(c2ccc(NS(=O)(=O)Cc3ccc(F)cc3Cl)cc2)c2ccc3ccccc3c2N1	0.023	Stability [7]: 58%; logD [8]: 3.71; fraction unbound [9]: < 0.02
O=C1CC(=O)N(c2ccc(NS(=O)(=O)c3ccccc3F)cc2)c2ccc3ccccc3c2N1	1.17	–
O=C1CC(=O)N(c2ccc(NS(=O)(=O)Cc3ccc(F)cc3)cc2)c2ccc3ccccc3c2N1	0.088	–
CN1C(=O)CC(=O)N(c2ccc(N(C)S(=O)(=O)c3ccccc3)cc2)c2ccc3ccccc3c21	> 10	–
O=C1CC(=O)N(c2ccccc2)c2ccc3ccccc3c2N1	9.28	–
O=C1CC(=O)N(c2ccc(NS(=O)(=O)c3c(Cl)cccc3Cl)cc2)c2ccc3ccccc3c2N1	0.65	–
COc1cc(Br)ccc1S(=O)(=O)Nc1ccc(N2C(=O)CC(=O)Nc3c2ccc2ccccc32)cc1	0.344	–
O=C1CC(=O)N(c2ccc(NC(=O)c3ccccc3Cl)cc2)c2ccc3ccccc3c2N1	0.481	–
O=C1CC(=O)N(c2ccc(NS(=O)(=O)c3cc(Br)ccc3Cl)cc2)c2ccc3ccccc3c2N1	0.175	–
O=C1CC(=O)N(c2ccc(NS(=O)(=O)c3ccc(F)cc3Br)cc2)c2ccc3ccccc3c2N1	0.064	–

Structure (SMILES)	IC50 (P2X purinoceptor 4; read-out: IC50) [µM]	also measured
COc1ccc(S(=O)(=O)Nc2ccc(N3C(=O)CC(=O)Nc4c3ccc3ccccc43)cc2)cc1	3.95	–
Cc1cc(F)ccc1CS(=O)(=O)Nc1ccc(N2C(=O)CC(=O)Nc3c2ccc2ccccc32)cn1	0.014	Stability [7]: 67%; logD [8]: 2.59; fraction unbound [9]: 0.03
O=C1CC(=O)N(c2ccc(NS(=O)(=O)c3ccc(F)cc3Cl)cc2)c2ccc3ccccc3c2N1	0.128	Stability [7]: 93%; logD [8]: 3.55; fraction unbound [9]: < 0.02
O=C1CC(=O)N(c2ccc(NS(=O)(=O)c3cccc4ccccc34)cc2)c2ccc3ccccc3c2N1	1.65	–
O=C1CC(=O)N(c2ccc(NS(=O)(=O)c3cccnc3[N+](=O)[O-])cc2)c2ccc3ccccc3c2N1	1	–
O=C1CC(=O)N(c2ccc(NS(=O)(=O)Cc3ccccc3Cl)cn2)c2ccc3ccccc3c2N1	0.017	–
O=C1CC(=O)N(c2ccc(NS(=O)(=O)c3cc(C(F)(F)F)ccc3Cl)cc2)c2ccc3ccccc3c2N1	2.73	–
O=C1CC(=O)N(c2ccc(NS(=O)(=O)Cc3ccc(B(O)O)cc3Cl)cc2)c2ccc3ccccc3c2N1	0.295	–
O=C1CC(=O)N(c2ccc(NS(=O)(=O)c3ccccc3Br)cc2)c2ccc3ccccc3c2N1	0.24	–
O=C1CC(=O)N(c2ccc(NS(=O)(=O)Cc3ccccc3)cc2)c2ccc3ccccc3c2N1	0.191	–
CNCC[C@H](Oc1cccc2ccccc12)c1cccs1 [DULOXETINE]	5.88	–
O=C1CC(=O)N(c2ccc(NS(=O)(=O)Cc3ccc(Br)cc3Cl)cc2)c2ccc3ccccc3c2N1	0.531	–
O=C(Cc1cc(Br)ccc1Cl)Nc1ccc(N2C(=O)CC(=O)Nc3c2ccc2ccccc32)cc1	1	–
O=C1CC(=O)N(c2ccc(NS(=O)(=O)Cc3c(Cl)cccc3Cl)cc2)c2ccc3ccccc3c2N1	0.074	–
O=C1CC(=O)N(c2ccc(NS(=O)(=O)c3ccc(F)cc3)cc2)c2ccc3ccccc3c2N1	24.8	–
COc1cc(F)ccc1S(=O)(=O)Nc1ccc(N2C(=O)CC(=O)Nc3c2ccc2ccccc32)cc1	0.059	–
Cc1ccc(Cl)c(S(=O)(=O)Nc2ccc(N3C(=O)CC(=O)Nc4c3ccc3ccccc43)cc2)c1	0.373	–
Nc1ccc(N2C(=O)CC(=O)Nc3c2ccc2ccccc32)cc1	0.99	–
O=C1CC(=O)N(c2ccc(NS(=O)(=O)Cc3ccccc3Cl)nc2)c2ccc3ccccc3c2N1	0.076	–
Cc1cc(Br)ccc1CS(=O)(=O)Nc1ccc(N2C(=O)CC(=O)Nc3c2ccc2ccccc32)cc1	0.097	–
Nc1ccc(N2C(=O)CC(=O)Nc3c2ccc2ccccc32)cn1	9.92	–
Cc1cc([18F])ccc1CS(=O)(=O)Nc1ccc(N2C(=O)CC(=O)Nc3c2ccc2ccccc32)cc1	–	Drug uptake [10]: Active; remaining at […] [1]: > 99%; Drug uptake [11]: Active; logD [2]: 3.43; remaining at […] [3]: > 99%
